Assay results as given in article PMC9401600 (Chemmedchem, 2022).

What was measured:
G9a = target: T1, G9a (Homo sapiens, UniProt Q96KQ7); assay: G9a Homogeneous Assay Kit (AlphaLISA) G9a inhibition; format: biochemical; settings: for IC50: AlphaLISA, 100 μM SAM and peptide substrate
T1 construct: purchased BPS Bioscience 52051
T1 sequence (Q96KQ7 1-1210): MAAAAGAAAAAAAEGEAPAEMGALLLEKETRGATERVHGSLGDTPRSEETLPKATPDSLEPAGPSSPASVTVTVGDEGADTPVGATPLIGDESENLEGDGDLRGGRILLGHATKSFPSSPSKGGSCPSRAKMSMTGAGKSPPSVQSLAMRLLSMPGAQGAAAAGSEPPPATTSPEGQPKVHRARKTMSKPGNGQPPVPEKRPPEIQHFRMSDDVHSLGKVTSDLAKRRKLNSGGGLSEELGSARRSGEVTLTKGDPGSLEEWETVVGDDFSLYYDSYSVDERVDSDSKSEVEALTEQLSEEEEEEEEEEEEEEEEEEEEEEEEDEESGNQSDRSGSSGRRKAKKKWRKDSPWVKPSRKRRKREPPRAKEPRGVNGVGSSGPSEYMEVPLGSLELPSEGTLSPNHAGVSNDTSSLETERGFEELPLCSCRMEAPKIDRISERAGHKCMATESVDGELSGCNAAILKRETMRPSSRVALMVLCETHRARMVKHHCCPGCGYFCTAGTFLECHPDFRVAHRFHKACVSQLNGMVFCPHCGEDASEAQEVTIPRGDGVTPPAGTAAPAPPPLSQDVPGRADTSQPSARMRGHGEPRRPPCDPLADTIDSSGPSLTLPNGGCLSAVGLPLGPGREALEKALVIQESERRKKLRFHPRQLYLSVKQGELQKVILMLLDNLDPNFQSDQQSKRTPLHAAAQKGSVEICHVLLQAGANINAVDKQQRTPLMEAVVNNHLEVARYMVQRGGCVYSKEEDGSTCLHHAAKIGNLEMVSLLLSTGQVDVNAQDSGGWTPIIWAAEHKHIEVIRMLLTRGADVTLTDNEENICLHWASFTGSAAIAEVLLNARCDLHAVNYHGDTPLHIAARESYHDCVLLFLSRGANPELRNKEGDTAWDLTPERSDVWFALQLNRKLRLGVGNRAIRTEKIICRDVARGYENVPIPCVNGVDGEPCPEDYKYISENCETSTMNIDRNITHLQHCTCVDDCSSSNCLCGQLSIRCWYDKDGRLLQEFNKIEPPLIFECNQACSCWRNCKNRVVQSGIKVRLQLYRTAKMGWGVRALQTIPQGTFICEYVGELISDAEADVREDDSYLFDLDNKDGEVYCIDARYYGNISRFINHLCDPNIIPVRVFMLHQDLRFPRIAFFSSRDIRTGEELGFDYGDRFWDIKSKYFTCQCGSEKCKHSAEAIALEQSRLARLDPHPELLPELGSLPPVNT
Protocol: The percentages of G9a activity for the 10 selected molecules were determined at 100 μM S‐adenosylmethionine (SAM) and peptide substrate using AlphaLISA® technology. These percentages were used to calculate the IC50.
G9a inhibitors were serially diluted between 5 nM and 0.001 nM in 100 % DMSO (Sigma, St. Louis, USA). Then, respective concentrations were subsequently diluted in MilliQ purified water to reach a final concentration ranging between 50 and 0.001 μM in 1 % DMSO in well.
Briefly, a sample containing the G9a enzyme is incubated with the biotinylated substrate plus inhibitor solution for two hours. Next, acceptor beads and primary antibody is added, followed by donor beads. Finally, the Alpha‐counts were read using an AlphaScreen microplate reader. The experiment was run per triplicate. G9aactivity(%)=(C-Cb)/(Ct-Cb)x100
Ct=The chemiluminescence reading in the absence of the compound. The data set here is defined as 100 % activity in the absence of the compound.
Cb=The chemiluminescence reading in absence of enzyme. The data set here is defined as 0 % activity in the absence of the enzyme.
C=The chemiluminescence reading in the presence of the compound.
Data analysis was conducted using GraphPad Prism ver. 9 statistical software. The statistical outliers were identified with Grubb's test and excluded from the analysis. Group comparisons were carried out with a One‐way Analysis of variance (ANOVA), followed by the Dunnett post hoc test. In some cases, comparison between groups was also performed by unpaired t‐test or One‐way ANOVA, followed by Fisher's LSD post hoc test. For the calculation of IC50, non‐linear regressions were performed. […] Values are shown as the mean ± Standard error of the mean (SEM) of at least n=3. Statistical significance was considered when p values were <0.05.

C. elegans strain CL2006 = assay: Locomotion assay (motor index); format: in vivo, Caenorhabditis elegans; settings: CL2006 worms, 0.001-1 μM, chronic treatment, compared with UNC0638
Protocol: One of the best‐characterized transgenic AD strains in C. elegans is the CL2006 strain, which contains the Punc‐54::Aβ1–42 transgene, showing a progressive adult‐onset paralysis. Then, to establish a dose‐response profile, the pharmacological impact of G9a inhibition was evaluated in a locomotion assay with this C. elegans strain. We performed a motility assay where animals were placed in the center of a seeded plate and allowed to explore the environment freely. […] N2 (WT), and CL2006 strain were treated with dimethyl sulfoxide (DMSO) 1 %, used as a vehicle, which should not cause a relevant locomotor defective phenotype. […] The motor index for each condition was calculated using the motor performance of Bristol (N2) (WT, 100 %) and the transgenic AD strain (CL2006, 0 %) animals as reference.
Locomotion assay of G9a inhibitors was assessed to obtain dose‐response profile, evaluating the impact of the pharmacology treatment in motor dysfunction presented by the transgenic strains CL2006. Nematodes were synchronized by alkaline hypochlorite treatment, and drug assay was performed as described above, except for the OP50 bacteria OD595 adjusted to 0.9, and the duration of the treatment was 5 days. N2 (WT), and the transgenic strain CL2006 were treated in liquid media for 4 days at 20 °C and 180 rpm, starting at the L1 stage. On day 5 of age, worms were transferred from the 96‐well plates onto an unseeded NGM plate for 45 minutes before starting the trial, allowing the plates to dry and worms. Locomotion assays were performed in 30 mm NGM plates, in which the whole surface of the plate was covered by OP50. 5 to 10 adult nematodes were placed in the center of a circle (with 1 cm of diameter) in the seeded 30 mm NGM plates. After 1 min, the number of animals remaining inside the circle was scored as a locomotor defect. Motor behavior assays were run in triplicates (n=3), with a total of at least 100 animals tested per compound concentration. Motor index establishes a score where treated animals showing the same motor defect as CL2006 have an index of 0 %. […] All the results shown in the figures are calculated using the following formula: Motorindex(%)=(LDCL2006vehicle-LDCL2006drug)/(LDCL2006vehicle-LDWTvehicle)×100 LD=locomotiondefective

PAMPA‐BBB assay = format: in vitro ADME; settings: pig; PAMPA‐BBB, PBS:EtOH (70 : 30); read-out: Permeability (Pe) experimental value
Protocol: To evaluate the brain penetration of the different compounds, a parallel artificial membrane permeation assay for BBB was used, following the method described by Di et al..[33] The in vitro Pe of fourteen commercial drugs through lipid extract of porcine brain membrane together with the test compounds were determined. Commercial drugs and assayed compounds were tested using a mixture of PBS:EtOH (70 : 30).

Row | Compound | remaining activity at 0.0001 µM (G9a; first data set of Table S2) [%] | remaining activity at 0.0001 µM (G9a; second data set of Table S2) [%] | remaining activity at 0.0001 µM (G9a; third data set of Table S2) [%] | remaining activity at 0.001 µM (G9a; first data set of Table S2) [%] | remaining activity at 0.001 µM (G9a; second data set of Table S2) [%] | remaining activity at 0.001 µM (G9a; third data set of Table S2) [%] | remaining activity at 0.01 µM (G9a; first data set of Table S2) [%] | remaining activity at 0.01 µM (G9a; second data set of Table S2) [%] | remaining activity at 0.01 µM (G9a; third data set of Table S2) [%] | remaining activity at 0.1 µM (G9a; first data set of Table S2) [%] | remaining activity at 0.1 µM (G9a; second data set of Table S2) [%] | remaining activity at 0.1 µM (G9a; third data set of Table S2) [%] | remaining activity at 1 µM (G9a; first data set of Table S2) [%] | remaining activity at 1 µM (G9a; second data set of Table S2) [%] | remaining activity at 1 µM (G9a; third data set of Table S2) [%] | remaining activity at 10 µM (G9a; first data set of Table S2) [%] | remaining activity at 10 µM (G9a; second data set of Table S2) [%] | remaining activity at 10 µM (G9a; third data set of Table S2) [%] | remaining activity at 50 µM (G9a; first data set of Table S2) [%] | remaining activity at 50 µM (G9a; second data set of Table S2) [%] | other results
1 | Cn1ccnc1-c1ccc(NCC(c2cccnc2)N2CCOCC2)nn1 (centres unmarked) [A] | 31 | 32.1 | 31.6 | 27.8 | 30.6 | 29.2 | 22.9 | 30.7 | 26.8 | 22.8 | 22.7 | 22.7 | 14.8 | 15.1 | 15 | 10 | 11.3 | 10.6 | -0.4 | 0.9 | remaining activity at 50 µM (G9a; third data set of Table S2): 0.3%
2 | CC(C)c1nccn1CCCNCc1cc(CN2CCCC2)cs1 [C] | 32.8 | 32.7 | 32.8 | 22.2 | 23.9 | 23.1 | 15.1 | 19.5 | 17.3 | 12 | 12.6 | 12.3 | 11.5 | 12.4 | 12 | 10.9 | 11.3 | 11.1 | 10.7 | 10.9 | remaining activity at 50 µM (G9a; third data set of Table S2): 10.8%; IC50 (G9a): 1.7 nM; motor index dose‐response profile (in words) (C. elegans strain CL2006): ameliorating the paralysis presented by CL2006
3 | c1ccc(OCCn2ccnc2)c(CN2CCN(c3ccncc3)CC2)c1 [Compound B] | 9.3 | 10.8 | 10 | 8.7 | 11.6 | 10.1 | 3.5 | 7.3 | 5.4 | 2.1 | 5.3 | 3.7 | 1.2 | 3.8 | 2.5 | 0.9 | 1.6 | 1.2 | 0.2 | 0.6 | remaining activity at 50 µM (G9a; third data set of Table S2): 0.4%; IC50 (G9a): 9.4 nM; motor index dose‐response profile (in words) (C. elegans strain CL2006): did not show an improved performance against the motor indexes of the control UNC0638
4 | Fc1ccccc1CN1CCC(CN(Cc2ccccn2)CC2CCCO2)CC1 (centres unmarked) [Compound D] | 33 | 33.8 | 33.4 | 29.3 | 28.4 | 28.8 | 23 | 21.5 | 22.2 | 15.8 | 15.9 | 15.9 | 11.5 | 14.2 | 12.8 | 8.3 | 10.3 | 9.3 | 9.9 | 12.1 | remaining activity at 50 µM (G9a; third data set of Table S2): 11%; IC50 (G9a): 10.5 nM
5 | CCc1nccn1CCC(=O)Nc1cccc(NC(=O)CN(C)C)c1 [G] | 29.6 | 33.7 | 31.7 | 26 | 28.7 | 27.4 | 17.6 | 16.1 | 16.8 | 11.4 | 12.3 | 11.9 | 8.7 | 10.3 | 9.5 | 8.5 | 9.1 | 8.8 | 7.7 | 9.1 | remaining activity at 50 µM (G9a; third data set of Table S2): 8.4%; IC50 (G9a): 5.8 nM; motor index dose‐response profile (in words) (C. elegans strain CL2006): motor index decreased progressively as the dose decreased
6 | CC(C)c1nccn1C(C)C(=O)Nc1ccc(NC(=O)CN2CCCCC2)cc1 (centres unmarked) [I] | 30.9 | 29.3 | 30.1 | 24 | 22.5 | 23.2 | 13.5 | 12.8 | 13.2 | 8.2 | 9.3 | 8.7 | 6.8 | 7.3 | 7.1 | 6.6 | 5.7 | 6.2 | 5.9 | 4.8 | remaining activity at 50 µM (G9a; third data set of Table S2): 5.3%; IC50 (G9a): 3.9 nM; motor index dose‐response profile (in words) (C. elegans strain CL2006): lowest motor index in the maximum and minimum dose tested
7 | CN1C(C(=O)Nc2ccccn2)=C(O)c2ccccc2S1(=O)=O [Piroxicam, reference compound] | – | – | – | – | – | – | – | – | – | – | – | – | – | – | – | – | – | – | – | – | Papp (PAMPA‐BBB assay): 2 ± 0.08 ×10⁻⁶ cm/s
8 | CC(=O)[C@H]1CC[C@H]2[C@@H]3CCC4=CC(=O)CC[C@]4(C)[C@H]3CC[C@]12C [Progesterone, reference compound] | – | – | – | – | – | – | – | – | – | – | – | – | – | – | – | – | – | – | – | – | Papp (PAMPA‐BBB assay): 14.7 ± 0.3 ×10⁻⁶ cm/s
